Tests used:
Wld^S DRG axons = experiment: Vincristine withdrawal in Wld^S mouse DRG cultures; type: cell-based; details: 0.05 μM vincristine for 24 hours
Description: The methods for DRG culture have been previously described.
Cultures were measured for length of longest axon and area of the DRG halo at days 4, 8, 12, 16 and 20. Lengths were measured from the center of the DRG to the visible distal end of the axon, and areas were calculated by tracing the circumference crested by connecting the tips of the remaining axons. […] Comparisons were made between quantitative data for C57BL/6 and Wld^S axons. For assessment of growth, day 4 observations in Wld^S were compared to all succeeding days using ANOVA for repeated measures.

Wld^S cultured neurites = experiment: Vincristine neuropathy in Wld^S mouse DRG cultures; type: cell-based; details: for halo area at day 10 compared to day 0 / length of longest axons at day 10 compared to day 0: Wld^S
Description: DRGs were allowed to mature for 5 days to create a lush halo of neurites. […] This date was defined as treatment day 0. […] Cultures were monitored and imaged on day 0, day 4, day 8 and day 10 of treatment using video microscopy.
Measures of axonal survival were the length of longest remaining axon, and the area of remaining DRG halo, as determined by serial phase-contrast video microscopy (FIG. 6). The axonal length was measured from the center of the DRG to the visible distal end of the axon. […] Data were thus analyzed as percent of day 0.

Vincristine sulfate salt
duration of growth arrest (Wld^S DRG axons): 10 days | area after resumed growth, % of control values (Wld^S DRG axons; 20-day observation period): 150% | length after resumed growth, % of control values (Wld^S DRG axons; 20-day observation period): 125% | halo area at day 10 compared to day 0 (Wld^S cultured neurites; vincristine 0.01 μM): 64.75±2.62% | length of longest axons at day 10 compared to day 0 (Wld^S cultured neurites; vincristine 0.01 μM): 84.33±2.54% | halo area at day 10 compared to day 0 (Wld^S cultured neurites; vincristine 0.1 μM): 7.92±3.83% | length of longest axons at day 10 compared to day 0 (Wld^S cultured neurites; vincristine 0.1 μM): 10.17±3.22% | Area of DRG Halo (Wld^S cultured neurites; vincristine 0.01 μM, Day 4, Wld^S): 7.27 ± 0.51 mm^2 | Area of DRG Halo (Wld^S cultured neurites; vincristine 0.01 μM, Day 8, Wld^S): 6.50 ± 0.56 mm^2 | Area of DRG Halo (Wld^S cultured neurites; vincristine 0.01 μM, Day 10, Wld^S): 5.60 ± 0.51 mm^2 | Area of DRG Halo (Wld^S cultured neurites; vincristine 0.02 μM, Day 4, Wld^S): 5.95 ± 0.72 mm^2 | Area of DRG Halo (Wld^S cultured neurites; vincristine 0.02 μM, Day 8, Wld^S): 3.39 ± 0.64 mm^2 | Area of DRG Halo (Wld^S cultured neurites; vincristine 0.02 μM, Day 10, Wld^S): 2.53 ± 0.59 mm^2 | Area of DRG Halo (Wld^S cultured neurites; vincristine 0.05 μM, Day 4, Wld^S): 4.17 ± 0.45 mm^2 | Area of DRG Halo (Wld^S cultured neurites; vincristine 0.05 μM, Day 8, Wld^S): 1.63 ± 0.48 mm^2 | Area of DRG Halo (Wld^S cultured neurites; vincristine 0.05 μM, Day 10, Wld^S): 0.80 ± 0.36 mm^2 | Area of DRG Halo (Wld^S cultured neurites; vincristine 0.1 μM, Day 4, Wld^S): 5.30 ± 0.86 mm^2 | Area of DRG Halo (Wld^S cultured neurites; vincristine 0.1 μM, Day 8, Wld^S): 2.00 ± 0.66 mm^2 | Area of DRG Halo (Wld^S cultured neurites; vincristine 0.1 μM, Day 10, Wld^S): 0.59 ± 0.28 mm^2

— patent publication US20040127439A1, “Introduction of the wld gene for prevention of axonal degeneration in neurological diseases” (priority 2004, published 2004)
